US8735414B2 (priority 2009, dated 2014)

What was measured:
[1] = system: bicistronic HCV replicon (replicon RNA, GenBank Accession No. AJ242654); test: HCV Replicon Assay; type: cell-based; conditions: Hepatitis C virus, 72 h, read-out: Replicon IC50

SMILES: CCc1cc2c(cc1F)c(C(N)=O)c(-c1ccc(S(=O)(=O)NC(C)(C)C(F)(F)F)cn1)n2-c1ncccn1 [compound 978, 6-ethyl-5-fluoro-1-(pyrimidin-2-yl)-2-{5-[(1,1,1-trifluoro-2-methylpropan-2-yl)sulfamoyl]pyridin-2-yl}-1H-indole-3-carboxamide]
- IC50 [1]: 2 to 5 µM
- melting point: 261 to 269 °C

SMILES: CCc1cc2c(cc1F)c(C(N)=O)c(-c1ccc(S(=O)(=O)NC3(C(F)(F)F)CC3)cn1)n2-c1ncccn1 [compound 979, 6-ethyl-5-fluoro-1-(pyrimidin-2-yl)-2-(5-{[1-(trifluoromethyl)cyclopropyl]sulfamoyl}pyridin-2-yl)-1H-indole-3-carboxamide]
- IC50 [1]: 2 to 5 µM
- melting point: 240 to 247 °C

SMILES: CCc1cc2c(cc1F)c(C(N)=O)c(-c1ccc(S(=O)(=O)N[C@@H](C)C(F)(F)F)cn1)n2-c1cc(C)ccn1 [compound 980, 6-ethyl-5-fluoro-1-(4-methylpyridin-2-yl)-2-(5-{[(2S)-1,1,1-trifluoropropan-2-yl]sulfamoyl}pyridin-2-yl)-1H-indole-3-carboxamide]
- IC50 [1]: 0.5 to 2 µM
- melting point: 137 to 145 °C

SMILES: CCc1cc2c(cc1F)c(C(N)=O)c(-c1ccc(S(=O)(=O)N[C@@H](C)C(F)(F)F)cn1)n2-c1ccc(F)cn1 [compound 981, 6-ethyl-5-fluoro-1-(5-fluoropyridin-2-yl)-2-(5-{[(2S)-1,1,1-trifluoropropan-2-yl]sulfamoyl}pyridin-2-yl)-1H-indole-3-carboxamide]
- IC50 [1]: < 0.5 µM
- melting point: 200 to 204 °C

SMILES: CCc1cc2c(cc1F)c(C(N)=O)c(-c1ccc(S(=O)(=O)N[C@@H](C)C(F)(F)F)cn1)n2-c1ccnc(C)n1 [compound 982, 6-ethyl-5-fluoro-1-(2-methylpyrimidin-4-yl)-2-(5-{[(2S)-1,1,1-trifluoropropan-2-yl]sulfamoyl}pyridin-2-yl)-1H-indole-3-carboxamide]
- IC50 [1]: 2 to 5 µM
- melting point: 115 to 120 °C

SMILES: CCc1cc2c(cc1F)c(C#N)c(-c1ccc(S(=O)(=O)N[C@@H](C)C(F)(F)F)cn1)n2-c1cncc(Cl)c1 [compound 983, 6-[1-(5-chloropyridin-3-yl)-3-cyano-6-ethyl-5-fluoro-1H-indol-2-yl]-N-[(2S)-1,1,1-trifluoropropan-2-yl]pyridine-3-sulfonamide]
- IC50 [1]: < 0.5 µM
- melting point: 107 to 109 °C

SMILES: Cc1cc2c(cc1F)c(C#N)c(-c1ccc(S(=O)(=O)N[C@@H](C)C(F)(F)F)cn1)n2-c1ncc(CO)s1 [compound 984, 6-{3-cyano-5-fluoro-1-[5-(hydroxymethyl)-1,3-thiazol-2-yl]-6-methyl-1H-indol-2-yl}-N-[(2S)-1,1,1-trifluoropropan-2-yl]pyridine-3-sulfonamide]
- IC50 [1]: < 0.5 µM
- melting point: 180 to 185 °C

SMILES: Cc1cc2c(cc1F)c(C#N)c(-c1ccc(S(=O)(=O)N[C@@H](C)C(F)(F)F)cn1)n2-c1cccs1 [compound 990, 6-[3-cyano-5-fluoro-6-methyl-1-(thiophen-2-yl)-1H-indol-2-yl]-N-[(2S)-1,1,1-trifluoropropan-2-yl]pyridine-3-sulfonamide]
- IC50 [1]: < 0.5 µM
- melting point: 233 to 240 °C

SMILES: Cc1cc2c(cc1F)c(C#N)c(-c1ccc(S(=O)(=O)N[C@@H](C)C(F)(F)F)cn1)n2-c1ccoc1 [compound 991, 6-[3-cyano-5-fluoro-1-(furan-3-yl)-6-methyl-1H-indol-2-yl]-N-[(2S)-1,1,1-trifluoropropan-2-yl]pyridine-3-sulfonamide]
- IC50 [1]: < 0.5 µM
- melting point: 215 to 219 °C

SMILES: Cc1cc2c(cc1F)c(C#N)c(-c1ccc(S(=O)(=O)N[C@@H](C)C(F)(F)F)cn1)n2-c1ccsc1 [compound 992, 6-[3-cyano-5-fluoro-6-methyl-1-(thiophen-3-yl)-1H-indol-2-yl]-N-[(2S)-1,1,1-trifluoropropan-2-yl]pyridine-3-sulfonamide]
- IC50 [1]: < 0.5 µM
- melting point: 196 to 203 °C
